For this test, the system named is NCI-H1876 complex spheroid viability. Put plainly: Anticancer human tumor NCI-H1876 cell line growth inhibition [LSD1].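 As to all read-outs here: spheroids exposed to compounds for one week before readout.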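 As to viability, T/C: 100% = DMSO vehicle-treated spheroids so lower means fewer viable cells.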 The conditions noted are these: for viability, T/C: stronger effect = lower value; for IC50: curve of compound. The source says:
Multicellular complex tumor spheroid response to LSD1 Inhibitor Iadademstat in combination with a variety of drugs and investigational agents in selected tumor cell lines
The current study was undertaken to assess response to LSD1 inhibitors in combination with standard-of-care drugs and investigational agents in solid tumor complex spheroid models as well as in the K-562 leukemia. Complex spheroids include a stromal component modeled by human endothelial cells (HUVEC) and fibroblasts modeled by human mesenchymal stem cells (MSCs). The concentration ranges selected for each drug and investigational agent were based upon clinically achievable concentrations if the clinical Cmax of the agent was known.
Compounds. The drugs and investigational agents used in this study are listed on Table 1. All of the agents used, including staurosporine (NSC755774) and gemcitabine (NSC613327), were obtained from the Developmental Therapeutics Program, NCI. FDA-approved anticancer drugs are available from the NCI at http://dtp.nci.nih.gov/branches/dscb/oncology_drugset_explanation.html. Drugs and investigational agents were >95% pure by proton nuclear magnetic resonance (NMR) and liquid chromatography/mass spectrometry (LC/MS). Stock solutions were prepared at 400x in DMSO, stored at -70 degrees C, and diluted in fresh medium prior to their use. The final concentration of DMSO in cell culture wells never exceeded 0.25% (v/v). The FDA-approved anticancer drug set is available from the Developmental Therapeutics Program at https://dtp.cancer.gov/organization/dscb/obtaining/available_plates.htm. All drugs and investigational agents were tested over a range starting from a high concentration at or near the clinical Cmax and decreasing in half-log increments. If the clinical Cmax for an agent had not been determined, the highest concentration tested was 10 microM.
Cell Lines. The patient-derived cancer cell (PDC) lines: 292921-168-R-J2-PDC, K24384-001-R-PDC, and 521955-158-R2-J5-PDC pancreatic carcinomas, 556581-035-R-J1 ovarian carcinoma, 324938-238-R-J1-PDC, 855422-203-R-J1-PDC and 883617-216-R-J1-PDC urothelial bladder carcinomas, 743489-274-T-PDC renal cell carcinoma, 138582-R-J1 Merkel cell tumor, K60290-347-R-J1 and K57222-313-R-J1-PDC glioblastomas, 653999-131-R-J2-PDC, LG0703-F948-PDC, and 349418-098-R-PDC non-small cell lung carcinomas, 885512-296-R-J2-PDC, 171881-019-R-J1-PDC breast carcinomas and 186277-243-T-J2-PDC and 233499-124-R-J2-PDC colon carcinomas were obtained from the NCI Patient-Derived Models Repository (PDMR, https://pdmr.cancer.gov). The established cell lines NCI/ADR-RES (RRID:CVCL_14520 and OVCAR-5 (RRID:CVCL_1628) ovarian carcinomas, 786-O (RRID:CVCL_1051) and A498 (RRID:CVCL_A498) renal cell carcinoma, NCI-H211 (ATCC, cat. CRL-5824; RRID:CVCL_1529), NCI-H196 (ATCC, cat. CRL-5823, RRID:CVCL_1509), SW 1271 (ATCC, cat. CRL-2177, RRID:CVCL_1716) and NCI-H1876 (ATCC, cat. CRL-5902, RRID:CVCL_1503) small cell lung carcinomas, MDA-MB-231 (RRID:CVCL_0062) and MDA-MB-468 (RRID:CVCL_0419)breast carcinomas (10-12). Pooled donor human umbilical vein endothelial cells (HUVEC, Lonza, cat. CC-2519) and human mesenchymal stem cells (hMSC, Lonza, cat. PT-2501) were purchased from Lonza (Walkersville, MD).
Cell Culture. All cells were maintained in an incubator at 37 degrees C and 5% CO2 with 95% humidity. The PDC lines were cultured according to standard operating procedures established by the NCI PDMR (https://pdmr.cancer.gov). Briefly all PDCs were thawed and cultured in Matrigel-coated flasks prepared with a working solution of 1X Ham's F-12 nutrient mix, without supplementation (Invitrogen, Waltham, MA, cat. 11765054), 100 U/mL penicillin-streptomycin (Invitrogen, cat. 15140122), and 2.5% Matrigel (Corning Inc., Corning, NY, cat. 354248) for the first three passages. […]

One may read the viability, T/C as the ratio of treated to control. As usually defined, the IC50 is the point on the concentration scale where inhibition reaches its midpoint.

“And” between values parts separate entries of the source, which are not always exact repeats. Equal values may be shown once.

In the case of `Cn1ncnc1C1c2n[nH]c(=O)c3cc(F)cc(c23)NC1c1ccc(F)cc1` (stereo not drawn), the IC50 is more than 100 nM. In addition, the viability, T/C (compound 0.000316 µM) is 100% and 104%. The viability, T/C (compound 0.001 µM) was 95% and 107%. Also, where the note is “compound 0.00316 µM”, the viability, T/C is 107% and 100%. Also, for the setting “compound 0.01 µM”, the viability, T/C was 107% and 100%. For the same compound, for the setting “compound 0.0316 µM”, the viability, T/C was 94.9% and 93.5%. Besides, the viability, T/C (compound 0.1 µM) is 93.8% and 79.9%.

On to `NS(=O)(=O)OCC1CC(n2ccc3c(NC4CCc5ccccc54)ncnc32)CC1O` (stereo not drawn), for which the IC50 was 165 nM and 150 nM. The viability, T/C (compound 0.00949 µM) was 84.9% and 85.4%. Where the note is “compound 0.03 µM”, the viability, T/C is 66.2% and 63.6%. Besides, the viability, T/C (compound 0.0949 µM) is 56.7% and 51.4%. The viability, T/C (compound 0.3 µM) is 43.3% and 49.8%. For the same compound, the viability, T/C (compound 0.949 µM) was 39% and 40.2%. Moreover, the viability, T/C (compound 3 µM) is 32.8% and 39%.

With `Nc1ccccc1NC(=O)c1ccc(CNC(=O)OCc2cccnc2)cc1`, the 50% inhibitory concentration (IC50) is 176 nM and 77.3 nM. Moreover, the viability, T/C (compound 0.00949 µM) is 103% and 93.5%. Moreover, the viability, T/C (compound 0.03 µM) is 97.7% and 77.7%. Also, where the note is “compound 0.0949 µM”, the viability, T/C was 79.1% and 44.3%. Also, under “compound 0.3 µM”, the viability, T/C was 24.9% and 14%. Also, the viability, T/C (compound 0.949 µM) is 10.3% and 4.22%. The viability, T/C (compound 3 µM) was 8.9% and 0.64%.

For `Nc1ccn(C2OC(CO)C(O)C2(F)F)c(=O)n1` (stereo not drawn), the IC50 was 3.7 nM and 5.87 nM. Further, the viability, T/C (compound 0.000949 µM) was 98.6% and 98.7%. Moreover, the viability, T/C (compound 0.003 µM) is 53.8% and 86.9%. Further, the viability, T/C (compound 0.00949 µM) was 29.2% and 23.5%. Besides, the viability, T/C (compound 0.03 µM) is 23.6% and 9.68%. For the same compound, the viability, T/C (compound 0.0949 µM) is 11.3% and 8.77%. For the same compound, the viability, T/C (compound 0.3 µM) is 10.5% and 7.09%.

As for `Nc1ncn(C2CC(O)C(CO)O2)c(=O)n1` (stereo not drawn), the IC50 was more than 1000 nM. For the same compound, the viability, T/C (compound 0.00316 µM) is 97.2% and 101%. Besides, for the setting “compound 0.01 µM”, the viability, T/C was 96.9% and 105%. The viability, T/C (compound 0.0316 µM) was 102% and 103%. For the same compound, the viability, T/C (compound 0.1 µM) is 97.4% and 97%. For the same compound, the viability, T/C (compound 0.316 µM) is 86.7% and 106%. For the same compound, the viability, T/C (compound 1 µM) is 86% and 83.6%.

Turning to `Nc1ncn(C2CC(O)C(CO)S2)c(=O)n1` (stereo not drawn), the IC50 was more than 300 nM. Also, for the setting “compound 0.000949 µM”, the viability, T/C was 105% and 97.8%. For the same compound, where the note is “compound 0.003 µM”, the viability, T/C is 96.8% and 99.5%. Also, under “compound 0.00949 µM”, the viability, T/C is 100% and 95.5%. The viability, T/C (compound 0.03 µM) is 81.2% and 81.3%. For the same compound, the viability, T/C (compound 0.0949 µM) was 83.2% and 71.1%. In addition, where the note is “compound 0.3 µM”, the viability, T/C is 59.5% and 50.1%.

Turning to `O=C(C=Cc1cccc(S(=O)(=O)Nc2ccccc2)c1)NO`, the IC50 was 176 nM and 156 nM. Further, the viability, T/C (compound 0.00949 µM) was 101% and 104%. Moreover, the viability, T/C (compound 0.03 µM) was 98.9% and 104%. Moreover, the viability, T/C (compound 0.0949 µM) was 75.1% and 73.1%. Also, the viability, T/C (compound 0.3 µM) is 27.6% and 19.1%. Moreover, the viability, T/C (compound 0.949 µM) is 9.32% and 8.04%. The viability, T/C (compound 3 µM) was 2.33% and 0.42%.

Consider `O=C(C=Cn1cnc(-c2cc(C(F)(F)F)cc(C(F)(F)F)c2)n1)NNc1cnccn1`, for which the half-inhibitory concentration (IC50) was 94.9 nM and 79.1 nM. Besides, where the note is “compound 0.00316 µM”, the viability, T/C is 99.2% and 92.7%. The viability, T/C (compound 0.01 µM) is 91% and 89.3%. In addition, the viability, T/C (compound 0.0316 µM) is 84.4% and 80%. The viability, T/C (compound 0.1 µM) was 47.8% and 42%. For the same compound, the viability, T/C (compound 0.316 µM) is 23.1% and 16.6%. Also, where the note is “compound 1 µM”, the viability, T/C was 16.3% and 9.98%.

As to `O=C(c1cc(Cc2n[nH]c(=O)c3ccccc23)ccc1F)N1CCN(C(=O)C2CC2)CC1`, the half-maximal inhibitory concentration (IC50) is 5540 nM and 6100 nM. For the same compound, the viability, T/C (compound 0.0316 µM) was 99.1% and 93.9%. Besides, the viability, T/C (compound 0.1 µM) is 96% and 96.3%. Besides, the viability, T/C (compound 0.316 µM) is 91.3% and 97.4%. The viability, T/C (compound 1 µM) is 85.9% and 91.3%. The viability, T/C (compound 3.16 µM) was 65.4% and 68.3%. Moreover, the viability, T/C (compound 10 µM) is 33.4% and 36.2%.
